Test systems include M14; SK-MEL-28; 786-0; SN12C; OVCAR-8; CCRF-CEM; HCT-116; UO-31; KM12; MDA-MB-231; MDA-N; A549; SNB-19; DU-145; LOX IMVI; NCI-H226; PC-3; NCI-H460; SNB-75.
Common to all, as to experiment: NCI tumour cell line growth inhibition, 48 h

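In this assay, cells in 96-well plates receive the compound at five concentrations for 48 hours. Endpoints are linearly interpolated between the surrounding concentrations. GI50: concentration for 50% inhibition of growth.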 Calls of active or inactive are those of the source. No stated cut-off is given here; in the data, active = GI50 up to about 1.1 µM and inactive = higher.

For the molecule `CC1=CC(C)(C)NN1C1=NS(=O)(=O)c2ccccc2N1C`, the GI50 with M14 is > 100 µM (inactive); in the experiment on SK-MEL-28, > 100 µM (inactive); in the experiment on 786-0, > 100 µM (inactive); in the experiment with SN12C, > 100 µM (inactive); in the experiment with OVCAR-8 it was > 100 µM (inactive); in the experiment on CCRF-CEM it was 98.9 µM (inactive). In addition, the GI50 is > 100 µM (inactive) in the experiment on HCT-116; 78.3 µM (inactive) with UO-31; > 100 µM (inactive) in the experiment on KM12; > 100 µM (inactive) in the experiment with MDA-MB-231; > 100 µM (inactive) in the experiment with MDA-N; > 100 µM (inactive) in the experiment with A549. In addition, the GI50 in the experiment on SNB-19, with DU-145, in the experiment with LOX IMVI, with NCI-H226, in the experiment on PC-3 and in the experiment with NCI-H460 was > 100 µM (inactive) throughout.
As to `CC12CCCCC1=[N+]([O-])C(C)(C)N2O` (centres undefined), the GI50 in the experiment on M14, in the experiment on SK-MEL-28, with 786-0, in the experiment with SN12C, in the experiment with OVCAR-8 and with CCRF-CEM was > 100 µM (inactive) each time. For the same molecule, the GI50 in the experiment with HCT-116, in the experiment on UO-31, in the experiment with KM12, in the experiment on MDA-MB-231, with MDA-N and in the experiment on A549 was > 100 µM (inactive) in each case. For the same molecule, the GI50 in the experiment with SNB-19, in the experiment on DU-145, with LOX IMVI, in the experiment with NCI-H226, in the experiment on PC-3 and in the experiment with NCI-H460 was > 100 µM (inactive) throughout.
For `COc1ccc(N2C(=O)CC(=O)N(C(=O)COc3ccc(OCC(=O)N4C(=O)CC(=O)N(c5ccc(OC)cc5)C4=S)cc3)C2=S)cc1`, the GI50 in the experiment on M14 is 54.5 µM (inactive); in the experiment on SK-MEL-28, 48.1 µM (inactive); with 786-0, 36.5 µM (inactive); with SN12C, 43.3 µM (inactive); in the experiment on HCT-116, 15.7 µM (inactive); with UO-31, 42.5 µM (inactive). The GI50 was 15.6 µM (inactive) in the experiment with KM12; 54 µM (inactive) in the experiment on SNB-75; 30.3 µM (inactive) in the experiment on MDA-MB-231; 37.8 µM (inactive) in the experiment on MDA-N; 35.8 µM (inactive) in the experiment on A549; 40.3 µM (inactive) in the experiment on SNB-19. Further, the GI50 with DU-145 is 49.9 µM (inactive); in the experiment on NCI-H226, 30.5 µM (inactive); in the experiment on PC-3, 41 µM (inactive); in the experiment with NCI-H460 it was 25.7 µM (inactive).
For the molecule `COC(=O)c1ccccc1C#CC#Cc1ccccc1C(=O)OC`, the GI50 in the experiment on M14 is > 10 µM (inactive); in the experiment with SK-MEL-28 it was > 10 µM (inactive); with 786-0, > 10 µM (inactive); with SN12C, > 10 µM (inactive); in the experiment with OVCAR-8, 6.21 µM (inactive); with CCRF-CEM, > 10 µM (inactive). In addition, the GI50 in the experiment with HCT-116 was > 10 µM (inactive); in the experiment on UO-31, > 10 µM (inactive); in the experiment on KM12, 3.19 µM (inactive); with MDA-MB-231, > 10 µM (inactive); in the experiment on MDA-N it was > 10 µM (inactive); in the experiment on A549, > 10 µM (inactive). In addition, the GI50 with SNB-19 was > 10 µM (inactive); in the experiment with DU-145, > 10 µM (inactive); in the experiment on LOX IMVI it was 7 µM (inactive); in the experiment on NCI-H226 it was 5.48 µM (inactive); with PC-3 it was 9.06 µM (inactive); in the experiment with NCI-H460, > 10 µM (inactive).
As for `COc1cc(C2c3cc4c(cc3OC(C)(O)C2C)OCO4)cc(OC)c1OC` (centres undefined), the GI50 in the experiment on 786-0 is 0.708 µM (active); in the experiment on SN12C, 0.505 µM (active); in the experiment with OVCAR-8 it was 0.217 µM (active); in the experiment with CCRF-CEM, 0.406 µM (active); with HCT-116, 0.333 µM (active); in the experiment with UO-31, 0.857 µM (active). Moreover, the GI50 in the experiment with KM12 is 0.697 µM (active); in the experiment with MDA-MB-231, 0.433 µM (active); with MDA-N it was 0.0555 µM (active); in the experiment on A549, 0.197 µM (active); with SNB-19, 0.342 µM (active); in the experiment with DU-145, 0.456 µM (active). The GI50 is 0.692 µM (active) in the experiment with LOX IMVI, 1.31 µM (inactive) in the experiment with NCI-H226, 0.306 µM (active) in the experiment on PC-3 and 0.406 µM (active) in the experiment with NCI-H460.
For `CCOP(C)(=O)C(Nc1ccc(F)cc1)c1ccc(F)cc1` (centres undefined), the GI50 in the experiment with M14, in the experiment with SK-MEL-28, with 786-0, in the experiment with SN12C, with OVCAR-8 and in the experiment with CCRF-CEM was > 100 µM (inactive) each time. Also, the GI50 in the experiment on HCT-116 is > 100 µM (inactive); in the experiment with UO-31, 71.3 µM (inactive); in the experiment on KM12, > 100 µM (inactive); with MDA-MB-231 it was > 100 µM (inactive); with MDA-N, > 100 µM (inactive); in the experiment on A549 it was > 100 µM (inactive). In addition, the GI50 in the experiment with SNB-19, in the experiment on DU-145, in the experiment with LOX IMVI, with NCI-H226, in the experiment with PC-3 and in the experiment on NCI-H460 was > 100 µM (inactive) in each case.
For the molecule `C/C(=C\c1ccccn1)c1ccccn1`, the GI50 with M14, in the experiment on SK-MEL-28, in the experiment on 786-0, in the experiment on OVCAR-8, in the experiment on HCT-116 and with UO-31 was > 100 µM (inactive) in each case. Moreover, the GI50 in the experiment with KM12, in the experiment on SNB-75, with MDA-MB-231, in the experiment with MDA-N, in the experiment on A549 and with SNB-19 was > 100 µM (inactive) in each case. The GI50 in the experiment on DU-145, in the experiment with PC-3 and with NCI-H460 was > 100 µM (inactive) each time.
As to `CN1CCN(C(=S)N(C(=O)c2ccco2)C2CCCCC2)CC1`, the GI50 in the experiment on M14, with SK-MEL-28, in the experiment with 786-0, in the experiment with SN12C, in the experiment with OVCAR-8 and in the experiment with CCRF-CEM was > 100 µM (inactive) each time. The GI50 in the experiment with UO-31 was > 100 µM (inactive); in the experiment with KM12, > 100 µM (inactive); in the experiment on SNB-75, 50.7 µM (inactive); in the experiment with MDA-MB-231 it was > 100 µM (inactive); with MDA-N it was > 100 µM (inactive); with A549, > 100 µM (inactive). The GI50 with SNB-19, in the experiment on DU-145, in the experiment on LOX IMVI, in the experiment on NCI-H226 and in the experiment on NCI-H460 was > 100 µM (inactive) each time.
For `CN1c2ccccc2S(=O)(=O)n2c(COc3ccccc3)nnc21`, the GI50 in the experiment on M14 was > 100 µM (inactive); with SK-MEL-28, > 100 µM (inactive); in the experiment with 786-0, 64.6 µM (inactive); with SN12C it was > 100 µM (inactive); with OVCAR-8 it was > 100 µM (inactive); in the experiment on CCRF-CEM, > 100 µM (inactive). Besides, the GI50 with HCT-116, in the experiment on UO-31, with KM12, with MDA-MB-231, with MDA-N and in the experiment with A549 was > 100 µM (inactive) each time. For the same molecule, the GI50 with SNB-19, in the experiment on DU-145, in the experiment on LOX IMVI, with NCI-H226, in the experiment on PC-3 and in the experiment with NCI-H460 was > 100 µM (inactive) in each case.
For the molecule `COC(=O)/C(=C(\C)NC(C)=O)c1c(C(=O)OC)[nH]c2ccccc12`, the GI50 in the experiment on M14, with SK-MEL-28, with 786-0, with SN12C, in the experiment with OVCAR-8 and in the experiment on CCRF-CEM was > 100 µM (inactive) in each case. Moreover, the GI50 in the experiment with HCT-116, with UO-31, in the experiment on KM12, in the experiment on MDA-MB-231, in the experiment with MDA-N and in the experiment with A549 was > 100 µM (inactive) in each case. The GI50 with SNB-19, in the experiment on DU-145, in the experiment on LOX IMVI, in the experiment on NCI-H226, in the experiment on PC-3 and in the experiment on NCI-H460 was > 100 µM (inactive) throughout.
In the case of `O=C1NC(Cc2c[nH]c3ccccc23)C(=O)N2C(c3ccccc3)c3[nH]c4ccccc4c3C[C@@H]12` (some centres undefined), the GI50 in the experiment with M14 is 21.6 µM (inactive); in the experiment on SK-MEL-28, 29.7 µM (inactive); in the experiment with 786-0, 16.2 µM (inactive); with SN12C, 16.4 µM (inactive); in the experiment with OVCAR-8 it was 31.3 µM (inactive); with HCT-116, 15.4 µM (inactive). Moreover, the GI50 in the experiment on UO-31 was 23.5 µM (inactive); in the experiment on KM12 it was 19.3 µM (inactive); in the experiment on MDA-MB-231, 20.6 µM (inactive); in the experiment on MDA-N it was 17.6 µM (inactive); in the experiment on A549, 25.8 µM (inactive); with SNB-19, 34.1 µM (inactive). Further, the GI50 in the experiment with DU-145 is 32.3 µM (inactive); with LOX IMVI, 19.7 µM (inactive); in the experiment on NCI-H226 it was 35.6 µM (inactive); in the experiment with PC-3, 18.7 µM (inactive).
With `CCCCc1ccc(Nc2nc3ncnc-3c[nH]2)cc1`, the GI50 with M14 was 18.6 µM (inactive); in the experiment on 786-0, 25.6 µM (inactive); with SN12C, 18.8 µM (inactive); in the experiment on OVCAR-8, 17.8 µM (inactive); with CCRF-CEM it was 7.94 µM (inactive); in the experiment on HCT-116 it was 20.2 µM (inactive). The GI50 was 12.5 µM (inactive) in the experiment with UO-31; 19.4 µM (inactive) with KM12; 14.6 µM (inactive) in the experiment with SNB-75; 12.8 µM (inactive) with MDA-MB-231; 32.8 µM (inactive) in the experiment on MDA-N; 21.7 µM (inactive) with A549. The GI50 in the experiment on SNB-19 is 18.2 µM (inactive); with DU-145, 15.9 µM (inactive); with LOX IMVI, 20.5 µM (inactive); in the experiment with NCI-H226, 15.9 µM (inactive).
